This note sets out measurements from US6482921B1, “Uridyl peptide antibiotic (UPA) derivatives, their synthesis and use” (Essential Therapeutics, Inc., priority 1999, dated 2002).

≈ marks a conversion by molar mass, not a printed value.

Common to all, as to assay type: cell-based
Experiment [1] relates to Pasteurella multocida pm002. Put plainly: MIC broth microdilution, P. multocida pm002 (wild type). On the technique in general: Dilution methods test growth across graded concentrations, often in twofold steps.
Experiment [2] relates to Escherichia Coli MC 4100 AcrAB UPA3r. Put plainly: MIC broth microdilution, E. coli MC 4100 AcrAB UPA3r (ΔAcrAB, UPA resistant). The following applies: E. coli AcrAB UPA3^r.
Experiment [3] relates to Staphylococcus aureus 8325-4. Put plainly: MIC broth microdilution, S. aureus 8325-4 (wild type). The settings on record: S. aureus 8325-4.
Another experiment relates to Escherichia Coli MC 4100. Put plainly: MIC broth microdilution, E. coli MC 4100 (wild type). The following applies: E. coli MC 4100.
Experiment [4] relates to Pseudomonas aeruginosa PAM 1154. The experiment in a line: MIC broth microdilution, P. aeruginosa PAM 1154 (OprM::Hg). The settings on record: P. aeruginosa PAM 1154 OprM::Hg.
For experiment [5], the system named is Pseudomonas aeruginosa PAM 1323. The experiment in a line: MIC broth microdilution, P. aeruginosa PAM 1323 (medium level UPA resistance). Here is the method:
Compounds were tested against several panels of bacteria. In a first panel, Table 3, several strains of Pseudomonas aeruginosa, Escherichia coli and Staphylococcus aureus were employed as the target bacteria.
For the bacteria in Table 3, the assay was performed in Mueller-Hinton Broth (MHB) with a final bacterial inoculum of 5×10^5 CFU/ml and a final volume of 100 μl. Control drugs, including imipenem and pacidimycin 4, and the test compounds were prepared at a concentration which was twice the desired final concentration (256 μg/ml). Dilution of the controls and the test compounds was accomplished directly on the test plates by serial 2-fold dilution using a multi-channel pipette. Both a positive and a negative growth control was included in each plate.
The bacterial inocula were prepared as follows. Bacterial strains were grown overnight at 35° C. in MHB. […] The culture was then diluted 1:10 and allowed to grow for an additional one hour at 35° C. in a shaking incubator. The inocula were then prepared by diluting the early log phase (one hour) cultures 1:2000 with fresh MHB. A volume of 50 μl of the inocula was added to each well, resulting in an inoculum of approximately 5×10^5 CFU/ml. The exact inocula were determined by putting 10 μl of 10-fold serial dilution of the bacterial suspensions onto TSA. After overnight incubation at 35° C., colony-forming units were counted manually.
The microtiter plates were incubated for 20 hours at 35° C. and were then read using a microtiterplate reader (Molecular Devices) at 650 nm as well as being visually observed using a microtiterplate reading mirror.

Experiment [6] relates to Pseudomonas aeruginosa PAM 1135. Put plainly: MIC broth microdilution, P. aeruginosa PAM 1135 (high level UPA resistance). The following applies: P. aeruginosa PAM 1135 UPA1^r.
In experiment [7] the test system is Escherichia Coli MC 4100 AcrAB. The experiment in a line: MIC broth microdilution, E. coli MC 4100 AcrAB (ΔAcrAB). The following applies: E. coli AcrAB.
For experiment [8], the system named is Staphylococcus aureus ATCC 29213. Put plainly: MIC broth microdilution, S. aureus ATCC 29213 (wild type). The following applies: S. aureus ATCC 29213.
Experiment [9] deals with Pseudomonas aeruginosa PAM 1020. Put plainly: MIC broth microdilution, P. aeruginosa PAM 1020 (wild type). The settings on record: P. aeruginosa PAM 1020.

As for `CC(C)CC(N)C(=O)N(C)C(C)C(NC(=O)C(CC(C)C)NC(=O)NC(Cc1c[nH]c2ccccc12)C(=O)O)C(=O)NCC1CC(O)C(n2ccc(=O)[nH]c2=O)O1` [Compound 108, 1-[5′[(2S,3S)-N^2-[N-[[(1S)-1-Carboxy-2-indol-3-ylethyl]carbamoyl]-L-leucyl]-N^3-L-leucyl-N^3-methyl-2,3-diaminobutyramido]-3′,5′-dideoxy-α-L-arabinofuranosyl]uracil], the “MIC (μg/ml) Broth microdilution” value was 512 µg/mL (≈ 642 µM) in [1]; 16 µg/mL (≈ 20.1 µM) in experiment [2]; over 512 µg/mL in experiment [3]; 256 µg/mL (≈ 321 µM) against Escherichia Coli MC 4100; 32 µg/mL (≈ 40.1 µM) in experiment [4]; 512 µg/mL (≈ 642 µM) in experiment [5]. Also, the “MIC (μg/ml) Broth microdilution” value is over 512 µg/mL in [6], under 1 µg/mL in experiment [7], over 512 µg/mL in [8] and 256 µg/mL (≈ 321 µM) in experiment [9].
As to `CSCCC(NC(=O)NC(Cc1c[nH]c2ccccc12)C(=O)O)C(=O)NC(C(=O)NCC1CC(O)C(n2ccc(=O)[nH]c2=O)O1)C(C)N(C)C(=O)C(N)Cc1ccc(F)cc1` [Compound 110, 1-[5′-[(2S,3S)-N^2-[N-[[(1S)-1-Carboxy-2-indol-3-ylethyl]carbamoyl]-L-methionyl]-N^3-L-4-fluorophenylalanyl-N^3-methyl-2,3-diaminobutyramido]-3′,5′-dideoxy-α-L-arabinofuranosyl]uracil], the “MIC (μg/ml) Broth microdilution” value in experiment [1] was 512 µg/mL (≈ 590 µM); in [2] it was 512 µg/mL (≈ 590 µM); in [3], over 512 µg/mL; with Escherichia Coli MC 4100, 512 µg/mL (≈ 590 µM); in experiment [4], 32 µg/mL (≈ 36.9 µM); in experiment [5] it was 256 µg/mL (≈ 295 µM). Further, the “MIC (μg/ml) Broth microdilution” value in [6] was 256 µg/mL (≈ 295 µM); in [7], 16 µg/mL (≈ 18.4 µM); in experiment [8], over 512 µg/mL; in experiment [9], 64 µg/mL (≈ 73.7 µM).
For the compound `CSCCC(NC(=O)NC(Cc1c[nH]c2ccccc12)C(=O)O)C(=O)NC(C(=O)NCC1CC(O)C(n2ccc(=O)[nH]c2=O)O1)C(C)N(C)C(=O)C(N)Cc1ccccc1` [Compound 111, 1-[5′-[(2S,3S)-N^2-[N-([(1S)-1-Carboxy-2-indol-3-ylethyl]carbamoyl]-L-methionyl]-N^3-L-phenylalanyl-N^3-methyl-2,3-diaminobutyramido]-3′,5′-dideoxy-α-L-arabinofuranosyl]uracil], the “MIC (μg/ml) Broth microdilution” value was 512 µg/mL (≈ 602 µM) in [1]; 512 µg/mL (≈ 602 µM) in [2]; over 512 µg/mL in [3]; 512 µg/mL (≈ 602 µM) against Escherichia Coli MC 4100; 16 µg/mL (≈ 18.8 µM) in experiment [4]; 256 µg/mL (≈ 301 µM) in experiment [5]. Also, the “MIC (μg/ml) Broth microdilution” value in experiment [6] was 256 µg/mL (≈ 301 µM); in [7] it was 8 µg/mL (≈ 9.41 µM); in experiment [8], over 512 µg/mL; in [9], 128 µg/mL (≈ 151 µM).
As for `CSCCC(NC(=O)NC(Cc1c[nH]c2ccccc12)C(=O)O)C(=O)NC(C(=O)NCC1CC(O)C(n2ccc(=O)[nH]c2=O)O1)C(C)N(C)C(=O)CN` [Compound 112, 1-[5′-[(2S,3S)-N^2-[N-[[(1S)-1-Carboxy-2-indol-3-ylethyl]carbamoyl]-L-methionyl]-N^3-glycyl-N^3-methyl-2,3-diaminobutyramido]-3′,5′-dideoxy-α-L-arabinofuranosyl]uracil], the “MIC (μg/ml) Broth microdilution” value in experiment [1] is 128 µg/mL (≈ 168 µM); in experiment [2], 16 µg/mL (≈ 21.1 µM); in [3] it was over 512 µg/mL; against Escherichia Coli MC 4100, over 512 µg/mL; in [4], 4 µg/mL (≈ 5.26 µM); in experiment [5], 256 µg/mL (≈ 337 µM). The “MIC (μg/ml) Broth microdilution” value in [6] was over 512 µg/mL; in experiment [7], 2 µg/mL (≈ 2.63 µM); in [8], over 512 µg/mL; in experiment [9] it was 16 µg/mL (≈ 21.1 µM).
`CC(C(NC(=O)C(Cc1ccc(F)cc1)NC(=O)NC(Cc1c[nH]c2ccccc12)C(=O)O)C(=O)NCC1CC(O)C(n2ccc(=O)[nH]c2=O)O1)N(C)C(=O)C(N)Cc1ccccc1` [Compound 113, 1-[5′-[(2S,3S)-[N-[[(1S)-1-Carboxy-2-indol-3-ylethyl]carbamoyl]-L-4-fluorophenylalanyl]-N^3-L-phenylalanyl-N^3-methyl-2,3-diaminobutyramido]-3′,5′-dideoxy-α-L-arabinofuranosyl]uracil]: the “MIC (μg/ml) Broth microdilution” value in experiment [1] was 512 µg/mL (≈ 579 µM); in experiment [2], 64 µg/mL (≈ 72.4 µM); in experiment [3], over 512 µg/mL; against Escherichia Coli MC 4100 it was over 512 µg/mL; in [4] it was 64 µg/mL (≈ 72.4 µM); in experiment [5], over 512 µg/mL. The “MIC (μg/ml) Broth microdilution” value was over 512 µg/mL in experiment [6], 8 µg/mL (≈ 9.05 µM) in experiment [7], over 512 µg/mL in experiment [8] and 64 µg/mL (≈ 72.4 µM) in experiment [9].
With `CC(C(NC(=O)C(Cc1ccccc1)NC(=O)NC(Cc1c[nH]c2ccccc12)C(=O)O)C(=O)NCC1CC(O)C(n2ccc(=O)[nH]c2=O)O1)N(C)C(=O)C(N)Cc1ccc(F)cc1` [Compound 114, 1-[5′-((2S,3S)-N^2-[N-[[(1S)-1-Carboxy-2-indol-3-ylethyl]carbamoyl]-L-phenylalanyl]-N^3-L-4-fluorophenylalanyl-N^3-methyl-2,3-diaminobutyramidol-3′,5′-dideoxy-α-L-arabinofuranosyl]uracil], the “MIC (μg/ml) Broth microdilution” value was 256 µg/mL (≈ 290 µM) in [1]; 512 µg/mL (≈ 579 µM) in experiment [2]; over 512 µg/mL in experiment [3]; 512 µg/mL (≈ 579 µM) in the experiment with Escherichia Coli MC 4100; 16 µg/mL (≈ 18.1 µM) in experiment [4]; 256 µg/mL (≈ 290 µM) in experiment [5]. For the same compound, the “MIC (μg/ml) Broth microdilution” value was 256 µg/mL (≈ 290 µM) in experiment [6], 8 µg/mL (≈ 9.05 µM) in experiment [7], over 512 µg/mL in experiment [8] and 16 µg/mL (≈ 18.1 µM) in experiment [9].
As to `CC(C(NC(=O)C(Cc1ccc(F)cc1)NC(=O)NC(Cc1c[nH]c2ccccc12)C(=O)O)C(=O)NCC1CC(O)C(n2ccc(=O)[nH]c2=O)O1)N(C)C(=O)CN` [Compound 116, 1-[5′-[(2S,3S)-N^2-[N-[[(1S)-1-Carboxy-2-indol-3-ylethyl)carbamoyl]-L-4-fluorophenylalanyl]-N^3-glycyl-N^3-methyl-3-diaminobutyramido]-3′,5′-dideoxy-α-L-arabinofuranosyl]uracil], the “MIC (μg/ml) Broth microdilution” value in experiment [1] was 128 µg/mL (≈ 161 µM); in [2], 16 µg/mL (≈ 20.2 µM); in [3], 256 µg/mL (≈ 322 µM); in the experiment on Escherichia Coli MC 4100, 256 µg/mL (≈ 322 µM); in experiment [4] it was 8 µg/mL (≈ 10.1 µM); in experiment [5] it was 512 µg/mL (≈ 645 µM). The “MIC (μg/ml) Broth microdilution” value in [6] is over 512 µg/mL; in experiment [7], under 1 µg/mL; in experiment [8] it was 512 µg/mL (≈ 645 µM); in experiment [9] it was 32 µg/mL (≈ 40.3 µM).
